From patent US20070093520A1, “Method of treatment of diarrhea-predominant irritable bowel syndrome in a subject” (priority 2005, published 2007)

Test system: diarrhea-predominant IBS subjects
Type: in vivo, human
Conditions: Cilansetron 2 mg, N=1454
Procedure: The study was performed in approximately 150 study centers. Approximately 1600 eligible subjects were to be given cilansetron 2 mg TID. At Visit 1, pre-treatment assessments were conducted. […] Subjects were to return to the study site one month later for Visit 3 (Day 31) for their first interim assessment. […] All subjects who discontinued from the study were to have the same post-study assessments required at Visit 7 performed at their early termination visit. […]
Stool specimens were analyzed at every visit for occult blood. An independent GERB had been established to provide advice on GI AEs during the course of the study.
Adverse events were assessed at Baseline, at each clinic visit, and at the end of the study (Month 12 or the early termination visit). All AEs, which occurred during the study were followed up in accordance with good medical practice until resolved or judged no longer clinically significant, or if a condition was chronic, until fully characterized. Adverse events could occur in the specified follow-up period and, regardless of the interval since the last administration of the study medication, were treated in the same manner as an AE which occurred during the treatment with study medication. Each AE was evaluated for duration, severity, seriousness, and causal relationship to the investigational drug. The action taken and the outcome were also recorded.
Specifically, subjects who were lost to follow-up and had no post-Baseline contact with the site were excluded from the Safety population. The subjects who discontinued from the study due to lost to follow-up were identified based on the information collected on the study termination CRF page.
After the pretreatment assessment at Visit 1 (Days […] to −3), subjects were to return to the study site for a Baseline assessment and start the treatment at Visit 2 (Day 1).
For the by time-interval analyses of disposition, prevalence of AEs, and of markedly abnormal and predefined changes in laboratory values, vital signs, and ECGs, the following interval windows were used:
Adverse events that were already present prior to the first dose of cilansetron study medication but increased in severity afterwards were considered as treatment-emergent.
The 5% cutoff point was based on the incidence within higher level terms.
Subjects were counted at most once for each primary system organ class and preferred term. Serious AEs that resolved prior to receiving study medication or occurred more than 30 days after the last dose of study medication were not included in the incidence tables. A listing of all SAEs is presented; SAEs with onset prior to receiving study medication or more than 30 days after discontinuation of study medication were flagged. The listing presents lower level term and preferred term of the SAE, severity, action taken, outcome, and relationship of the SAE, start and stop date of the SAE, study day of onset of the SAE, age, race, and sex.

## Cc1nccn1C[C@H]1CCc2c(c3cccc4c3n2CCC4)C1=O [cilansetron, (R)-(−)-4,5,6,8,9,10-hexahydro-10-[(2-methyl-1H-imidazol-1-yl)methyl]-11H-pyrido-[3,2,1-jk]-carbazol-11-one]
  TEAE incidence: Carbohydrate Tolerance Analyses (Incl Diabetes): 2 (<1%) n (%)
  TEAE incidence: Cardiac Enzymes Increased: 1 (<1%) n (%)
  TEAE incidence: Carotid Artery Atheroma: 1 (<1%) n (%)
  TEAE incidence: Carotid Artery Stenosis: 1 (<1%) n (%)
  TEAE incidence: Carpal Tunnel Syndrome: 2 (<1%) n (%)
  TEAE incidence: Cellulitis: 1 (<1%) n (%)
  TEAE incidence: Central Nervous System Haemorrhages and Cerebrovascular Accidents: 1 (<1%) n (%)
  TEAE incidence: Central Nervous system Vascular Disorders NEC: 2 (<1%) n (%)
  TEAE incidence: Cerebral Infarction: 1 (<1%) n (%)
  TEAE incidence: Cervical Root Pain: 1 (<1%) n (%)
  TEAE incidence: Cervical Spinal Cord and Nerve Root Disorders: 1 (<1%) n (%)
  TEAE incidence: Cholesterol Analyses: 25 (2%) n (%)
  TEAE incidence: Colitis Ischaemic: 2 (<1%) n (%)
  TEAE incidence: Colitis NOS: 1 (<1%) n (%)
  TEAE incidence: Colonic Polyp: 2 (<1%) n (%)
  TEAE incidence: Cystitis Acute NOS: 5 (<1%) n (%)
  TEAE incidence: Cystitis NOS: 4 (<1%) n (%)
  TEAE incidence: Defaecation Urgency: 1 (<1%) n (%)
  TEAE incidence: Dental Discomfort: 1 (<1%) n (%)
  TEAE incidence: Dental Pain and Sensation Disorders: 13 (<1%) n (%)
  TEAE incidence: Diaphragmatic Hernias: 2 (<1%) n (%)
  TEAE incidence: Diarrhoea Aggravated: 8 (<1%) n (%)
  TEAE incidence: Diarrhoea Haemorrhagic: 1 (<1%) n (%)
  TEAE incidence: Diarrhoea NOS: 73 (5%) n (%)
  TEAE incidence: Disturbances in Consciousness NEC: 5 (<1%) n (%)
  TEAE incidence: Dizziness: 28 (2%) n (%)
  TEAE incidence: Dry Mouth: 3 (<1%) n (%)
  TEAE incidence: Duodenal Polyp: 1 (<1%) n (%)
  TEAE incidence: Duodenal Ulcer: 1 (<1%) n (%)
  TEAE incidence: Duodenal Ulcers and Perforation: 1 (<1%) n (%)
  TEAE incidence: Duodenitis: 2 (<1%) n (%)
  TEAE incidence: Dysgeusia: 2 (<1%) n (%)
  TEAE incidence: Dyspepsia: 50 (3%) n (%)
  TEAE incidence: Dyspepsia Aggravated: 4 (<1%) n (%)
  TEAE incidence: Dyspeptic Signs and Symptoms: 59 (4%) n (%)
  TEAE incidence: Dysphagia: 1 (<1%) n (%)
  TEAE incidence: Dystonias: 1 (<1%) n (%)
  TEAE incidence: ECG Investigations: 25 (2%) n (%)
  TEAE incidence: Electrocardiogram Abnormal NOS: 2 (<1%) n (%)
  TEAE incidence: Electrocardiogram Change NOS: 1 (<1%) n (%)
  TEAE incidence: Electrocardiogram Pr Interval Prolonged: 1 (<1%) n (%)
  TEAE incidence: Electrocardiogram Pr Shortened: 1 (<1%) n (%)
  TEAE incidence: Electrocardiogram Q Waves Normal: 1 (<1%) n (%)
  TEAE incidence: Electrocardiogram Qt Shortened: 1 (<1%) n (%)
  TEAE incidence: Electrocardiogram St Segment Depression: 3 (<1%) n (%)
  TEAE incidence: Electrocardiogram St Segment Elevation: 3 (<1%) n (%)
  TEAE incidence: Electrocardiogram T Wave Abnormal: 4 (<1%) n (%)
  TEAE incidence: Electrocardiogram T Wave Amplitude Decreased: 1 (<1%) n (%)
  TEAE incidence: Electrocardiogram T Wave Inversion: 7 (<1%) n (%)
  TEAE incidence: Eosinophil Count Increased: 18 (1%) n (%)
  TEAE incidence: Eosinophil Percentage Increased: 2 (<1%) n (%)
  TEAE incidence: Epigastric Discomfort: 2 (<1%) n (%)
  TEAE incidence: Epigastric Hernia: 1 (<1%) n (%)
  TEAE incidence: Eructation: 5 (<1%) n (%)
  TEAE incidence: Facial Cranial Nerve Disorders: 1 (<1%) n (%)
  TEAE incidence: Facial Palsy: 1 (<1%) n (%)
  TEAE incidence: Faecal Abnormality NOS: 3 (<1%) n (%)
  TEAE incidence: Faecal Occult Blood Positive: 9 (<1%) n (%)
  TEAE incidence: Faeces Abnormal: 51 (4%) n (%)
  TEAE incidence: Faeces Discoloured: 2 (<1%) n (%)
  TEAE incidence: Faeces Hard: 32 (2%) n (%)
  TEAE incidence: Food Poisoning NOS: 1 (<1%) n (%)
  TEAE incidence: Frequent Bowel Movements: 5 (<1%) n (%)
  TEAE incidence: Gamma-Glutamyltransferase Decreased: 1 (<1%) n (%)
  TEAE incidence: Gamma-Glutamyltransferase Increased: 19 (1%) n (%)
  TEAE incidence: Gastric Erosions: 2 (<1%) n (%)
  TEAE incidence: Gastric Polyps: 1 (<1%) n (%)
  TEAE incidence: Gastric Ulcer: 2 (<1%) n (%)
  TEAE incidence: Gastric Ulcers and Perforation: 4 (<1%) n (%)
  TEAE incidence: Gastritis Aggravated: 4 (<1%) n (%)
  TEAE incidence: Gastritis NOS: 13 (<1%) n (%)
  TEAE incidence: Gastroenteritis NOS: 24 (2%) n (%)
  TEAE incidence: Gastrointestinal Atonic and Hypomotility Disorders NEC: 228 (16%) n (%)
  TEAE incidence: Gastrointestinal Disorders: 587 (40%) n (%)
  TEAE incidence: Gastrointestinal Disorders NEC: 2 (<1%) n (%)
  TEAE incidence: Gastrointestinal Dyskinetic Disorders: 1 (<1%) n (%)
  TEAE incidence: Gastrointestinal Histopathology Procedures: 22 (2%) n (%)
  TEAE incidence: Gastrointestinal Inflammatory Disorders NEC: 3 (<1%) n (%)
  TEAE incidence: Gastrointestinal Motility Disorder NOS: 1 (<1%) n (%)
  TEAE incidence: Gastrointestinal Mucosal Dystrophies and Secretion Disorders: 2 (<1%) n (%)
  TEAE incidence: Gastrointestinal Neoplasms NEC: 2 (<1%) n (%)
  TEAE incidence: Gastrointestinal Pain NOS: 2 (<1%) n (%)
  TEAE incidence: Gastrointestinal Signs and Symptoms NEC: 12 (<1%) n (%)
  TEAE incidence: Gastrointestinal Spastic and Hypermotility Disorders: 21 (1%) n (%)
  TEAE incidence: Gastrointestinal and Abdominal Pains (Excl Oral and Throat): 223 (15%) n (%)
  TEAE incidence: Gingival Disorders NEC: 1 (<1%) n (%)
  TEAE incidence: Gingivitis: 1 (<1%) n (%)
  TEAE incidence: Glossitis: 1 (<1%) n (%)
  TEAE incidence: Glucose Urine Present: 2 (<1%) n (%)
  TEAE incidence: Haematemesis: 1 (<1%) n (%)
  TEAE incidence: Haematological Analyses NEC: 1 (<1%) n (%)
  TEAE incidence: Haemoglobin Decreased: 1 (<1%) n (%)
  TEAE incidence: Haemorrhoidal Haemorrhage: 9 (<1%) n (%)
  TEAE incidence: Haemorrhoids: 30 (2%) n (%)
  TEAE incidence: Haemorrhoids Aggravated: 1 (<1%) n (%)
  TEAE incidence: Haemorrhoids and Gastrointestinal Varices (Excl Oesophageal): 38 (3%) n (%)
  TEAE incidence: Halitosis: 2 (<1%) n (%)
  TEAE incidence: Headache NOS Aggravated: 2 (<1%) n (%)
  TEAE incidence: Headaches NEC: 104 (7%) n (%)
  TEAE incidence: Herpes Simplex: 3 (<1%) n (%)
  TEAE incidence: Herpes Zoster: 4 (<1%) n (%)
  TEAE incidence: Hiatus Hernia: 2 (<1%) n (%)
  TEAE incidence: Hiccups: 1 (<1%) n (%)
  TEAE incidence: Hyperacidity: 4 (<1%) n (%)
  TEAE incidence: Hypersomnia: 1 (<1%) n (%)
  TEAE incidence: Hypoaesthesia: 2 (<1%) n (%)
  TEAE incidence: Hypoaesthesia Oral: 1 (<1%) n (%)
  TEAE incidence: Ileus Paralytic: 1 (<1%) n (%)
  TEAE incidence: Influenza: 51 (4%) n (%)
  TEAE incidence: Inguinal Hernia NOS: 2 (<1%) n (%)
  TEAE incidence: Inguinal Hernias: 2 (<1%) n (%)
  TEAE incidence: Intercostal Neuralgia: 1 (<1%) n (%)
  TEAE incidence: Intertrigo Candida: 1 (<1%) n (%)
